Key:
[1] = system: KPC-2 producing K. pneumoniae (ATCC BAA-1705); test: Synergistic broth micro-dilution MIC (checkerboard); assay type: cell-based, Klebsiella pneumoniae; conditions: Klebsiella pneumoniae, ATCCBAA1705, no BLI; ATCC BAA-1705; read-out: MIC of antibiotic alone (no BLI)
[2] = system: E. coli ATCC 25922 (β-lac-ve); test: Disk zone of inhibition, antibiotic + Compound-1 on same disk (Methodology 2); assay type: cell-based, Escherichia coli; conditions: CAZ 30 μg or IPM 10 μg disk alone; ATCC 25922
[3] = system: K. pneumoniae ATCC 700603 (SHV18); test: as above; assay type: cell-based, Klebsiella pneumoniae; conditions: CAZ 30 μg or IPM 10 μg disk alone
From the text: (§1) In this experiment, Compound-1 is used as a diagnostic reagent for the detection of β-lactamases belonging to the families KPC & ESBL (e.g., SHV18) producing Enterobacteriaceae. A simple set of absorbent paper disks impregnated with antibiotic on agar medium is used for the detection.
(§2) • 0.5 McFarland of the test organism was inoculated at 1:10 dilution on Muller • Hinton Agar plates • Test organisms: Klebsiella pneumoniae (K.p) ATCC BAA-1705, Klebsiella pneumoniae ATCC 700603, Escherichia coli (E.c) Ecoli233 • Carbapenem (e.g., Imipenem [IPM] 10 μg) and cephalosporin (e.g., Ceftazidime [CAZ] 30 μg) paper disks (7 mm) were placed on the inoculated agar plates • Compound-1 (60 μg) disk was placed at a distance of 7 & 10 mm from the carbapenem and cephalosporin disks. • The presence of expressed carbapenemases or ESBLs was measured as the expansion of Imipenem or Ceftazidime's inhibition zones due to synergy in the presence of Compound-1. Results:
(§3) The methodology remains the same as Methodology 1 except the following change • Compound-1 (60 μg) was added on the same disk in combination with a carbapenem (e.g., Imipenem 10 μg) or cephalosporin (e.g., Ceftazidime 30 μg) and placed on the inoculated agar plate. • The presence of the expressed carbapenemases or ESBLs was measured as an increase in Imipenem or Ceftazidime's zone diameter in combination with Compound-1 compared to antibiotic alone. Results

[4] = system: K. pneumoniae ATCC BAA-1705 (KPC2); test: as above; assay type: cell-based, Klebsiella pneumoniae; conditions: CAZ 30 μg or IPM 10 μg disk alone
From the text: as §1
as §2, with “Compound-1.” for “Compound-1. Results:”
as §3

[5] = system: KPC-3 expressing E. coli (J53 R6206); test: Synergistic broth micro-dilution MIC (checkerboard); assay type: cell-based, Escherichia coli; conditions: no BLI
E. coli Ecoli233 (KPC3) = test: Disk zone of inhibition, antibiotic + Compound-1 on same disk (Methodology 2); assay type: cell-based, Escherichia coli; conditions: CAZ 30 μg or IPM 10 μg disk alone
From the text: as §1
as §2, with “Compound-1.” for “Compound-1. Results:”
as §3

`CC(C)(O/N=C(\C(=O)N[C@@H]1C(=O)N2C(C(=O)[O-])=C(C[n+]3ccccc3)CS[C@H]12)c1csc(N)n1)C(=O)O` [Ceftazidime] was tested, and the MIC [1] was > 128 µg/mL, the “Zone of inhibition (ZOI), antibiotic alone” value (from here on “Zone of inhibition (ZOI)”) [2] was 25 mm and the “Zone of inhibition (ZOI)” value [3] was 12 mm. The “Zone of inhibition (ZOI)” value [4] was 12 mm, the “MIC of antibiotic alone (no BLI)” value [5] was >32 µg/mL and the “Zone of inhibition (ZOI)” value (E. coli Ecoli233 (KPC3)) was 11 mm.
